The numbers were not newly measured in patent US20040180832A1, “Sustained peptide-release formulation” (Peptech Limited, priority 1996, published 2004), which cites them from elsewhere.

This data set relates to advanced prostatic cancer. The settings on record: monthly subcutaneous injections.

Regarding `CC(C)C[C@H](NC(=O)[C@@H](COC(C)(C)C)NC(=O)[C@H](Cc1ccc(O)cc1)NC(=O)[C@H](CO)NC(=O)[C@H](Cc1c[nH]c2ccccc12)NC(=O)[C@H](Cc1cnc[nH]1)NC(=O)[C@@H]1CCC(=O)N1)C(=O)N[C@@H](CCCNC(=N)N)C(=O)N1CCC[C@H]1C(=O)NNC(N)=O` [goserelin, 3-[5-oxo-L-prolyl-L-tryptophyl-L-seryl-L-tyrosyl-(3-O-tert-butyl)-D-seryl-L-leucyl-L-arginyl-L-prolyl] cabazamide acetate.], the “efficacy in advanced prostatic cancer compared with orchiectomy” value was “as effective as orchiectomy” and the tolerability entry is recorded as “well tolerated”.
